# pIC50: −log10 of the molar value.
# Test system: spliced XBP1
# Assay: Spliced XBP1 mRNA measurement test (RT-PCR, tunicamycin-induced ER stress in MCF-7 cells)
# Assay type: cell-based
# Details: Homo sapiens, MCF7, compound pre-treated for 1 hour, then 2 µg/mL tunicamycin for 6 or 24 hours, spliced XBP1 corrected by total XBP1
# Method: With respect to these synthetic compounds, reverse transcription polymerase chain reaction (RT-PCR) experiments were conducted on MCF-7 cancer cells to confirm the effect thereof on the mRNA and protein amounts of spliced XBP1, which is the target of IRE endonuclease. A reverse transcription polymerase chain reaction is a test method in which RNA is extracted from cells, reverse transcriptase is used to make cDNA, and relative mRNA expression level is measured through a polymerase chain reaction.
# Briefly, MCF-7 cells were seeded in a 12-well plate and cultured in an incubator including 5% CO2 for one day. On the next day, compounds, which were 10-fold serially diluted from 10,000 nM, were pre-treated for 1 hour, and then, treated with 2 µg/mL tunicamycin for 6 or 24 hours to induce endoplasmic reticulum stress, followed by cell lysis to obtain RNA. RNA was subjected to the procedure of RNeasy Kits (Qiagen, 74106), and 5 µg of RNA sample was dissolved in a sample including reverse transcriptase and dNTP, and reverse transcription reaction was performed with a thermal cycler. The amount of mRNA of each of spliced XBP1 and total XBP1 was measured by a polymerase chain reaction through real time PCR by mixing each cDNA sample with a PCR reaction mixture including a primer pair capable of binding specifically to each target and SYBR green dye. The expression level of spliced XBP1 was corrected by the total expression level of XBP1, and the relative expression levels of spliced XBP1 between samples were compared and analyzed.
row,pIC50,Compound
1,> 7.00,"Cc1c(CC(=O)N2CCOCC2)c(=O)oc2c(C=O)c(O)c3c(c12)CCCO3 [Example 3, 6-hydroxy-1-methyl-2-(2-morpholino-2-oxoethyl)-3-oxo-3,8,9,10-tetrahydropyrano[3,2-f]chromene-5-carbaldehyde]"
2,> 7.00,"Cc1c(CC(=O)N2CCOCC2)c(=O)oc2c(C=O)c(O)c3c(c12)CCO3 [Example 1, 4-hydroxy-9-methyl-8-(2-morpholino-2-oxoethyl)-7-oxo-1,7-dihydro-2H-furo[3,2-f]chromene-5-carbaldehyde]"
3,6.70 to 7.00,"Cc1c(CC(=O)N2CCC3(CC3)C2)c(=O)oc2c(C=O)c(O)c3c(c12)CCCO3 [Example 20, 6-hydroxy-1-methyl-3-oxo-2-(2-oxo-2-(5-azaspiro[2.4]heptan-5-yl)ethyl)-3,8,9,10-tetrahydropyrano[3,2-f]chromene-5-carbaldehyde]"
4,≤ 6.70,"Cc1c(CC(=O)NCCN2CCOCC2)c(=O)oc2c(C=O)c(O)c3c(c12)CCCO3 [Example 29, 2-(5-formyl-6-hydroxy-1-methyl-3-oxo-3,8,9,10-tetrahydropyrano[3,2-f]chromen-2-yl)-N-(2-morpholinoethyl)acetamide]"
5,> 7.00,"Cc1c(CC(=O)N2CCCC2)c(=O)oc2c(C=O)c(O)c3c(c12)CCCO3 [Example 5, 6-hydroxy-1-methyl-3-oxo-2-(2-oxo-2-(pyrrolidin-1-yl)ethyl)-3,8,9,10-tetrahydropyrano[3,2-f]chromene-5-carbaldehyde]"
6,≤ 6.70,"Cc1c(CC(=O)N2CCCCC2)c(=O)oc2c(C=O)c(O)c3c(c12)CCCO3 [Example 21, 6-hydroxy-1-methyl-3-oxo-2-(2-oxo-2-(piperidin-1-yl)ethyl)-3,8,9,10-tetrahydropyrano[3,2-f]chromene-5-carbaldehyde]"
7,> 7.00,"CCN(CC)C(=O)Cc1c(C)c2c3c(c(O)c(C=O)c2oc1=O)OCC3 [Example 9, N,N-diethyl-2-(5-formyl-4-hydroxy-9-methyl-7-oxo-1,7-dihydro-2H-furo[3,2-f]chromen-8-yl)acetamide]"
8,> 7.00,"Cc1c(CC(=O)N2CCSC2)c(=O)oc2c(C=O)c(O)c3c(c12)CCCO3 [Example 30, 6-hydroxy-1-methyl-3-oxo-2-(2-oxo-2-(thiazolidin-3-yl)ethyl)-3,8,9,10-tetrahydropyrano[3,2-f]chromene-5-carbaldehyde]"
9,6.70 to 7.00,"CC(C)c1c(CC(=O)N2CCCC2)c(=O)oc2c(C=O)c(O)c3c(c12)CCCO3 [Example 23, 6-hydroxy-1-isopropyl-3-oxo-2-(2-oxo-2-(pyrrolidin-1-yl)ethyl)-3,8,9,10-tetrahydropyrano[3,2-f]chromene-5-carbaldehyde]"
10,6.70 to 7.00,"COC1CN(C(=O)Cc2c(C)c3c4c(c(O)c(C=O)c3oc2=O)OCCC4)C1 [Example 15, 6-hydroxy-2-(2-(3-methoxyazetidin-1-yl)-2-oxoethyl)-1-methyl-3-oxo-3,8,9,10-tetrahydropyrano[3,2-f]chromene-5-carbaldehyde]"
11,6.70 to 7.00,"COC1CCN(C(=O)Cc2c(C)c3c4c(c(O)c(C=O)c3oc2=O)OCCC4)C1 (stereo not shown) [Example 14, 6-hydroxy-2-(2-(3-methoxypyrrolidin-1-yl)-2-oxoethyl)-1-methyl-3-oxo-3,8,9,10-tetrahydropyrano[3,2-f]chromene-5-carbaldehyde]"
12,6.70 to 7.00,"Cc1c(CC(=O)N2CC(F)C2)c(=O)oc2c(C=O)c(O)c3c(c12)CCCO3 [Example 19, 2-(2-(3-fluoroazetidin-1-yl)-2-oxoethyl)-6-hydroxy-1-methyl-3-oxo-3,8,9,10-tetrahydropyrano[3,2-f]chromene-5-carbaldehyde]"
13,≤ 6.70,"Cc1c(CC(=O)N2CCC(C)CC2)c(=O)oc2c(C=O)c(O)c3c(c12)CCCO3 [Example 4, 6-hydroxy-1-methyl-2-(2-(4-methylpiperidin-1-yl)-2-oxoethyl)-3-oxo-3,8,9,10-tetrahydropyrano[3,2-f]chromene-5-carbaldehyde]"
14,> 7.00,"COCCNC(=O)Cc1c(C)c2c3c(c(O)c(C=O)c2oc1=O)OCCC3 [Example 24, 2-(5-formyl-6-hydroxy-1-methyl-3-oxo-3,8,9,10-tetrahydropyrano[3,2-f]chromen-2-yl)-N-(2-methoxyethyl)acetamide]"
15,> 7.00,"Cc1c(CC(=O)N2CC3CC2CO3)c(=O)oc2c(C=O)c(O)c3c(c12)CCCO3 (stereo not shown) [Example 27, 2-(2-(2-oxa-5-azabicyclo[2.2.1]heptan-5-yl)-2-oxoethyl)-6-hydroxy-1-methyl-3-oxo-3,8,9,10-tetrahydropyrano[3,2-f]chromene-5-carbaldehyde]"
16,> 7.00,"Cc1c(CC(=O)N2CCC(C)C2)c(=O)oc2c(C=O)c(O)c3c(c12)CCCO3 (stereo not shown) [Example 11, 6-hydroxy-1-methyl-2-(2-(3-methylpyrrolidin-1-yl)-2-oxoethyl)-3-oxo-3,8,9,10-tetrahydropyrano[3,2-f]chromene-5-carbaldehyde]"
17,≤ 6.70,"CC(=O)N1CCN(C(=O)Cc2c(C)c3c4c(c(O)c(C=O)c3oc2=O)OCCC4)CC1 [Example 26, 2-(2-(4-acetylpiperazin-1-yl)-2-oxoethyl)-6-hydroxy-1-methyl-3-oxo-3,8,9,10-tetrahydropyrano[3,2-f]chromene-5-carbaldehyde]"
18,≤ 6.70,"Cc1c(CC(N)=O)c(=O)oc2c(C=O)c(O)c3c(c12)CCCO3 [Example 22, 2-(5-formyl-6-hydroxy-1-methyl-3-oxo-3,8,9,10-tetrahydropyrano[3,2-f]chromen-2-yl)acetamide]"
19,6.70 to 7.00,"Cc1c(CC(=O)N2CCSCC2)c(=O)oc2c(C=O)c(O)c3c(c12)CCCO3 [Example 28, 6-hydroxy-1-methyl-3-oxo-2-(2-oxo-2-thiomorpholinoethyl)-3,8,9,10-tetrahydropyrano[3,2-f]chromene-5-carbaldehyde]"
20,6.70 to 7.00,"Cc1c(CC(=O)N2CCOCC2)c(=O)oc2c(C=O)c(O)c3c(c12)OCO3 [Example 2, 4-hydroxy-9-methyl-8-(2-morpholino-2-oxoethyl)-7-oxo-7H-[1,3]dioxolo[4,5-f]chromene-5-carbaldehyde]"
21,≤ 6.70,"CCc1c(CC(=O)N2CCCC2)c(=O)oc2c(C=O)c(O)c3c(c12)CCCO3 [Example 18, 1-ethyl-6-hydroxy-3-oxo-2-(2-oxo-2-(pyrrolidin-1-yl)ethyl)-3,8,9,10-tetrahydropyrano[3,2-f]chromene-5-carbaldehyde]"
22,6.70 to 7.00,"Cc1c(CC(=O)N2CCC2)c(=O)oc2c(C=O)c(O)c3c(c12)CCCO3 [Example 13, 2-(2-(azetidin-1-yl)-2-oxoethyl)-6-hydroxy-1-methyl-3-oxo-3,8,9,10-tetrahydropyrano[3,2-f]chromene-5-carbaldehyde]"
23,> 7.00,"Cc1c(CC(=O)N2CCC(F)(F)C2)c(=O)oc2c(C=O)c(O)c3c(c12)CCCO3 [Example 10, 2-(2-(3,3-difluoropyrrolidin-1-yl)-2-oxoethyl)-6-hydroxy-1-methyl-3-oxo-3,8,9,10-tetrahydropyrano[3,2-f]chromene-5-carbaldehyde]"
24,> 7.00,"CCNC(=O)Cc1c(C)c2c3c(c(O)c(C=O)c2oc1=O)OCCC3 [Example 17, N-ethyl-2-(5-formyl-6-hydroxy-1-methyl-3-oxo-3,8,9,10-tetrahydropyrano[3,2-f]chromen-2-yl)acetamide]"
25,≤ 6.70,"Cc1c(CC(=O)N2CCNCC2)c(=O)oc2c(C=O)c(O)c3c(c12)CCCO3 [Example 31, 6-hydroxy-1-methyl-3-oxo-2-(2-oxo-2-(piperazin-1-yl)ethyl)-3,8,9,10-tetrahydropyrano[3,2-f]chromene-5-carbaldehyde]"
26,≤ 6.70,"Cc1c(CC(=O)N2CCC(F)C2)c(=O)oc2c(C=O)c(O)c3c(c12)CCCO3 (stereo not shown) [Example 16, 2-(2-(3-fluoropyrrolidin-1-yl)-2-oxoethyl)-6-hydroxy-1-methyl-3-oxo-3,8,9,10-tetrahydropyrano[3,2-f]chromene-5-carbaldehyde]"
27,> 7.00,"CCNC(=O)Cc1c(C)c2c3c(c(O)c(C=O)c2oc1=O)OCC3 [Example 8, N-ethyl-2-(5-formyl-4-hydroxy-9-methyl-7-oxo-1,7-dihydro-2H-furo[3,2-f]chromen-8-yl)acetamide]"
28,> 7.00,"CCN(CC)C(=O)Cc1c(C)c2c3c(c(O)c(C=O)c2oc1=O)OCCC3 [Example 25, N,N-diethyl-2-(5-formyl-6-hydroxy-1-methyl-3-oxo-3,8,9,10-tetrahydropyrano[3,2-f]chromen-2-yl)acetamide]"

row,Compound,pIC50
1,"Cc1c(CC(=O)N2CCN(C(C)C)CC2)c(=O)oc2c(C=O)c(O)c3c(c12)CCCO3 [Example 7, 6-hydroxy-2-(2-(4-isopropylpiperazin-1-yl)-2-oxoethyl)-1-methyl-3-oxo-3,8,9,10-tetrahydropyrano[3,2-f]chromene-5-carbaldehyde]",6.70 to 7.00
2,"Cc1c(CC(=O)N2CCN(C)CC2)c(=O)oc2c(C=O)c(O)c3c(c12)CCCO3 [Example 6, 6-hydroxy-1-methyl-2-(2-(4-methylpiperazin-1-yl)-2-oxoethyl)-3-oxo-3,8,9,10-tetrahydropyrano[3,2-f]chromene-5-carbaldehyde]",> 7.00

# Same assay, conditions: compound pre-treated for 1 hour, then 2 µg/mL tunicamycin for 6 or 24 hours, spliced XBP1 corrected by total XBP1
row,pIC50,Compound
1,> 7.00,"COc1cc2c(C)c(CC(=O)N3CCOCC3)c(=O)oc2c(C=O)c1O [MKC8866, reference compound]"

# From patent EP4578861A1, “NOVEL TRICYCLIC HETEROCYCLIC CARBALDEHYDE COMPOUND AND PHARMACEUTICAL COMPOSITION, CONTAINING SAME, FOR IRE1ALPHA INHIBITION” (Hanmi Pharm. Co., Ltd., priority 2022, dated 2024)
